Assay results taken from patent US6852702B2, “9a-N-[N′-(phenylsulfonyl)carbamoyl] derivatives of 9-deoxo-9-dihydro-9a-aza-9a-homoerythromycin A and of 5-O-desosaminyl-9-deoxo-9-dihydro-9a-aza-9a-homoerythronolide A” (Pliva D.D., priority 2002, dated 2005).
≈ marks a conversion by molar mass, not a printed value.

Test system: Streptococcus pneumoniae ATCC 6305
Experiment: MIC by dilution method on microplates (NCCLS M7-A2)
Format: cell-based
Settings: in vitro
Description: Minimal inhibitory concentrations (MIC, in μg/ml) are determined by dilution method on microplates according to recommendations of National Committee for Clinical Laboratory Standards (NCCLS, M7-A2). So e.g. the minimal inhibitory concentration on Streptococcus pneumoniae ATCC 6305 for the compounds from Examples 1 and 4 is 2 μg/ml and for compounds from Examples 2 and 3 is 1 μg/ml. Thus, they can be used for disinfection of rooms, surgical instruments and people as well as therapeutic agents in the treatment of infective diseases in animals, specially mammals, or humans that are caused by a wide spectrum of gram-positive bacteria, microorganisms or generally pathogenic microorganisms which are sensitive to the compounds of the formula 1. For this purpose the above compounds or their pharmaceutically acceptable salts with acids may be used orally in usual doses from 0.2 mg/kg body weight per day to about 250 mg/kg/day, most frequently from 5-50 mg/kg/day, or parenterally in the form of subcutaneous or intramuscular injections.

| SMILES | minimal inhibitory concentration (MIC) [µg/mL] |
| --- | --- |
| CCC1OC(=O)C(C)C(OC2CC(C)(OC)C(O)C(C)O2)C(C)C(OC2OC(C)CC(N(C)C)C2O)C(C)(O)CC(C)CN(C(=O)NS(=O)(=O)c2ccc(C)cc2)C(C)C(O)C1(C)O (stereo not shown) [Example 2, 9-Deoxo-9-dihydro-9a-N-[N′-(p-toluenesulfonyl)carbamoyl]-9a-aza-9a-homoerythromycin A] | 1 (≈ 1.07 µM) |
| CCC1OC(=O)C(C)C(OC2CC(C)(OC)C(O)C(C)O2)C(C)C(OC2OC(C)CC(N(C)C)C2O)C(C)(O)CC(C)CN(C(=O)NS(=O)(=O)c2ccccc2C)C(C)C(O)C1(C)O (stereo not shown) [Example 3, 9-Deoxo-9-dihydro-9a-N-[N′-(o-toluenesulfonyl)carbamoyl]-9a-aza-9a-homoerythromycin A] | 1 (≈ 1.07 µM) |
| CCC1OC(=O)C(C)C(OC2CC(C)(OC)C(O)C(C)O2)C(C)C(OC2OC(C)CC(N(C)C)C2O)C(C)(O)CC(C)CN(C(=O)NS(=O)(=O)c2ccccc2)C(C)C(O)C1(C)O (stereo not shown) [Example 4, 9-Deoxo-9-dihydro-9a-N-[N′-(benzenesulfonyl)carbamoyl]-9a-aza-9a-homoerythromycin A] | 2 (≈ 2.18 µM) |
| CCC1OC(=O)C(C)C(OC2CC(C)(OC)C(O)C(C)O2)C(C)C(OC2OC(C)CC(N(C)C)C2O)C(C)(O)CC(C)CN(C(=O)NS(=O)(=O)c2ccc(Cl)cc2)C(C)C(O)C1(C)O (stereo not shown) [Example 1, 9-Deoxo-9-dihydro-9a-N-[N′-(4-chlorobenzenesufonyl)carbamoyl]-9a-aza-9a-homoerythromycin A] | 2 (≈ 2.1 µM) |
